Experimental data as given in the supplement of paper PMC10307832.

Tests used:
Assay in all cases: relative viability (nuclei count vs DMSO), 5 days (fraction); higher = more cells survive
[1] = system: NCI-H23
Summary of the method: (§1)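 Medians of duplicate plates are given as relative viability. That measure is the nuclei count in treated wells divided by the count in vehicle wells. Counts were taken on 4× images of lung cancer cell lines in 1536-well plates, 5 days after pin-tool dosing the day after seeding with one drug alone or a fixed anchor-drug dose plus five library-drug doses (not always all listed) in √10 steps.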

[2] = system: NCI-H322M
Summary of the method: as §1

[3] = system: NCI-H2085
Summary of the method: as §1

[4] = system: ChaGo-K-1
Summary of the method: as §1

[5] = system: COR-L23
Summary of the method: as §1

[6] = system: NCI-H1355
Summary of the method: as §1

[7] = system: HOP-62
Summary of the method: as §1

[8] = system: NCI-H1651
Summary of the method: as §1

[9] = system: LC-2-ad
Summary of the method: as §1

[10] = system: NCI-H2347
Summary of the method: as §1

[11] = system: CAL-12T
Summary of the method: as §1

[12] = system: NCI-H2170
Summary of the method: as §1

[13] = system: NCI-H1993
Summary of the method: as §1

[14] = system: NCI-H838
Summary of the method: as §1

[15] = system: NCI-H1666
Summary of the method: as §1

[16] = system: NCI-H520
Summary of the method: as §1

[17] = system: HCC-44
Summary of the method: as §1

[18] = system: NCI-H647
Summary of the method: as §1

[19] = system: 201T
Summary of the method: as §1

[20] = system: NCI-H1395
Summary of the method: as §1

[21] = system: NCI-H2228
Summary of the method: as §1

Work on `CCCCCCCCCCCC1=C(O)C(=O)C=C(O)C1=O` [Embelin] + CC1(C)CCC(c2ccc(Cl)cc2)=C(CN2CCN(c3ccc(C(=O)NS(=O)(=O)c4ccc(N[C@H](CCN5CCOCC5)CSc5ccccc5)c(S(=O)(=O)C(F)(F)F)c4)cc3)CC2)C1 [Navitoclax] (partner 0.5 µM) yielded a relative viability ([1]; first compound 0.08 µM) of 0.848, a relative viability ([1]; first compound 0.8 µM) of 0.904 and a relative viability ([1]; first compound 2.53 µM) of 0.884. It also gave a relative viability ([1]; first compound 8 µM) of 0.74, a relative viability ([2]; first compound 0.08 µM) of 1.1 and a relative viability ([2]; first compound 0.8 µM) of 1.37. The relative viability ([2]; first compound 2.53 µM) was 1.48, the relative viability ([2]; first compound 8 µM) was 1.12 and the relative viability ([3]; first compound 0.08 µM) was 1.09. For the same molecule, the relative viability ([3]; first compound 0.8 µM) was 1.31, the relative viability ([3]; first compound 2.53 µM) was 1.2 and the relative viability ([3]; first compound 8 µM) was 1. The relative viability ([4]; first compound 0.08 µM) was 1.17, the relative viability ([4]; first compound 0.8 µM) was 1.54 and the relative viability ([4]; first compound 2.53 µM) was 0.956. For the same molecule, the relative viability ([4]; first compound 8 µM) was 0.777, the relative viability ([5]; first compound 0.08 µM) was 0.991 and the relative viability ([5]; first compound 0.8 µM) was 1.32. For the same molecule, the relative viability ([5]; first compound 2.53 µM) was 1.19, the relative viability ([5]; first compound 8 µM) was 1.22 and the relative viability ([6]; first compound 0.08 µM) was 1.04. The relative viability ([6]; first compound 0.8 µM) was 1.05, the relative viability ([6]; first compound 2.53 µM) was 1.06 and the relative viability ([6]; first compound 8 µM) was 0.884. For the same molecule, the relative viability ([7]; first compound 0.08 µM) was 0.882, the relative viability ([7]; first compound 0.8 µM) was 1.16 and the relative viability ([7]; first compound 2.53 µM) was 1.09. The relative viability ([7]; first compound 8 µM) was 1.22, the relative viability ([8]; first compound 0.08 µM) was 0.926 and the relative viability ([8]; first compound 0.8 µM) was 1.19. For the same molecule, the relative viability ([8]; first compound 2.53 µM) was 1.02, the relative viability ([8]; first compound 8 µM) was 1.09 and the relative viability ([9]; first compound 0.08 µM) was 0.406. For the same molecule, the relative viability ([9]; first compound 0.8 µM) was 0.625, the relative viability ([9]; first compound 2.53 µM) was 0.451 and the relative viability ([9]; first compound 8 µM) was 0.51. For the same molecule, the relative viability ([10]; first compound 0.08 µM) was 0.746, the relative viability ([10]; first compound 0.8 µM) was 0.95 and the relative viability ([10]; first compound 2.53 µM) was 1.01. It also gave a relative viability ([10]; first compound 8 µM) of 0.811, a relative viability ([11]; first compound 0.08 µM) of 1.12 and a relative viability ([11]; first compound 0.8 µM) of 1.41. It also gave a relative viability ([11]; first compound 2.53 µM) of 1.23, a relative viability ([11]; first compound 8 µM) of 1.24 and a relative viability ([12]; first compound 0.08 µM) of 0.641. For the same molecule, the relative viability ([12]; first compound 0.8 µM) was 0.678, the relative viability ([12]; first compound 2.53 µM) was 0.698 and the relative viability ([12]; first compound 8 µM) was 0.547. For the same molecule, the relative viability ([13]; first compound 0.08 µM) was 0.958, the relative viability ([13]; first compound 0.8 µM) was 0.84 and the relative viability ([13]; first compound 2.53 µM) was 0.916. It also gave a relative viability ([13]; first compound 8 µM) of 0.893, a relative viability ([14]; first compound 0.08 µM) of 1.19 and a relative viability ([14]; first compound 0.8 µM) of 1.25. For the same molecule, the relative viability ([14]; first compound 2.53 µM) was 1.2, the relative viability ([14]; first compound 8 µM) was 1.18 and the relative viability ([15]; first compound 0.08 µM) was 1.21. For the same molecule, the relative viability ([15]; first compound 0.8 µM) was 1.22, the relative viability ([15]; first compound 2.53 µM) was 0.995 and the relative viability ([15]; first compound 8 µM) was 0.999. For the same molecule, the relative viability ([16]; first compound 0.08 µM) was 1.24, the relative viability ([16]; first compound 0.8 µM) was 1.26 and the relative viability ([16]; first compound 2.53 µM) was 1.07. The relative viability ([16]; first compound 8 µM) was 1.04, the relative viability ([17]; first compound 0.08 µM) was 0.903 and the relative viability ([17]; first compound 0.8 µM) was 0.911. For the same molecule, the relative viability ([17]; first compound 2.53 µM) was 1.07, the relative viability ([17]; first compound 8 µM) was 0.923 and the relative viability ([18]; first compound 0.08 µM) was 1.25. For the same molecule, the relative viability ([18]; first compound 0.8 µM) was 1.35, the relative viability ([18]; first compound 2.53 µM) was 1.21 and the relative viability ([18]; first compound 8 µM) was 1.2. It also gave a relative viability ([19]; first compound 0.08 µM) of 1.18, a relative viability ([19]; first compound 0.8 µM) of 1.19 and a relative viability ([19]; first compound 2.53 µM) of 1.19. The relative viability ([19]; first compound 8 µM) was 1.17, the relative viability ([20]; first compound 0.08 µM) was 1.18 and the relative viability ([20]; first compound 0.8 µM) was 1.42. The relative viability ([20]; first compound 2.53 µM) was 1.18, the relative viability ([20]; first compound 8 µM) was 0.982 and the relative viability ([21]; first compound 0.08 µM) was 0.793. For the same molecule, the relative viability ([21]; first compound 0.8 µM) was 0.955, the relative viability ([21]; first compound 2.53 µM) was 1.28 and the relative viability ([21]; first compound 8 µM) was 0.604.
